In ChEMBL document CHEMBL3045814, “Antifungal activity of Hinokitiol-related compounds on wood-rotting fungi and their insecticidal activities” (2000):
≈ marks a conversion by molar mass, not a printed value. Calls of active or inactive are those of the source. The calls are words filed in the database; no cut-off is given here.

Columns and labels:
Format in all cases: functional
Tyrophagus putrescentiae [1] = experiment: Insecticidal activity against Tyrophagus putrescentiae assessed as mortality after 24 hr by clip method
Coptotermes formosanus [2] = experiment: Insecticidal activity against Coptotermes formosanus assessed as mortality after 24 to 48 hr
Trametes coccinea = experiment: Antifungal activity against Pycnoporus coccineus IFO-4924 assessed as growth inhibition after 7 days by agar dilution method; conditions: for MIC: IFO-4924, 168 h
Lenzites betulinus = experiment: Antifungal activity against Lenzites betulinus IFO-4964 assessed as growth inhibition after 7 days by agar dilution method; conditions: for MIC: IFO-4964, 168 h
Schizophyllum commune = experiment: Antifungal activity against Schizophyllum commune IFO-4928 assessed as growth inhibition after 7 days by agar dilution method; conditions: for MIC: IFO-4928, 168 h
Trametes versicolor = experiment: Antifungal activity against Trametes versicolor IFO-4940 assessed as growth inhibition after 7 days by agar dilution method; conditions: for MIC: IFO-4940, 168 h
Fomitopsis dickinsii = experiment: Antifungal activity against Daedalea dickinsii IFO-4979 assessed as growth inhibition after 7 days by agar dilution method; conditions: for MIC: IFO-4979, 168 h
Coptotermes formosanus [3] = experiment: Insecticidal activity against Coptotermes formosanus assessed as mortality at 0.05 g/m2 after 48 hr relative to control
Coptotermes formosanus [4] = experiment: Insecticidal activity against Coptotermes formosanus assessed as mortality at 0.1 g/m2 after 48 hr relative to control
Coptotermes formosanus [5] = experiment: Insecticidal activity against Coptotermes formosanus assessed as mortality at 0.2 g/m2 after 48 hr relative to control
Coptotermes formosanus [6] = experiment: Insecticidal activity against Coptotermes formosanus assessed as mortality at 1 g/m2 after 48 hr relative to control
Coptotermes formosanus [7] = experiment: Insecticidal activity against Coptotermes formosanus assessed as mortality at 0.01 g/m2 after 24 hr relative to control
Coptotermes formosanus [8] = experiment: Insecticidal activity against Coptotermes formosanus assessed as mortality at 0.05 g/m2 after 24 hr relative to control
Coptotermes formosanus [9] = experiment: Insecticidal activity against Coptotermes formosanus assessed as mortality at 0.02 g/m2 after 24 hr relative to control
Coptotermes formosanus [10] = experiment: Insecticidal activity against Coptotermes formosanus assessed as mortality at 0.1 g/m2 after 24 hr relative to control
Coptotermes formosanus [11] = experiment: Insecticidal activity against Coptotermes formosanus assessed as mortality at 0.2 g/m2 after 24 hr relative to control
Coptotermes formosanus [12] = experiment: Insecticidal activity against Coptotermes formosanus assessed as mortality at 1 g/m2 after 24 hr relative to control
Coptotermes formosanus [13] = experiment: Insecticidal activity against Coptotermes formosanus assessed as mortality at 0.01 g/m2 after 48 hr relative to control
Coptotermes formosanus [14] = experiment: Insecticidal activity against Coptotermes formosanus assessed as mortality at 0.02 g/m2 after 48 hr relative to control
Tyrophagus putrescentiae [15] = experiment: Insecticidal activity against Tyrophagus putrescentiae assessed as mortality at 0.01 g/m2 after 24 hr by clip method relative to control
Tyrophagus putrescentiae [16] = experiment: Insecticidal activity against Tyrophagus putrescentiae assessed as mortality at 0.02 g/m2 after 24 hr by clip method relative to control
Tyrophagus putrescentiae [17] = experiment: Insecticidal activity against Tyrophagus putrescentiae assessed as mortality at 0.05 g/m2 after 24 hr by clip method relative to control
Tyrophagus putrescentiae [18] = experiment: Insecticidal activity against Tyrophagus putrescentiae assessed as mortality at 0.1 g/m2 after 24 hr by clip method relative to control
Tyrophagus putrescentiae [19] = experiment: Insecticidal activity against Tyrophagus putrescentiae assessed as mortality at 0.2 g/m2 after 24 hr by clip method relative to control
Tyrophagus putrescentiae [20] = experiment: Insecticidal activity against Tyrophagus putrescentiae assessed as mortality at 0.5 g/m2 after 24 hr by clip method relative to control
Tyrophagus putrescentiae [21] = experiment: Insecticidal activity against Tyrophagus putrescentiae assessed as mortality at 1 g/m2 after 24 hr by clip method relative to control
Coptotermes formosanus [22] = experiment: Insecticidal activity against Coptotermes formosanus assessed as mortality at 0.00001 g/m2 after 24 hr relative to control
Coptotermes formosanus [23] = experiment: Insecticidal activity against Coptotermes formosanus assessed as mortality at 0.00005 g/m2 after 24 hr relative to control
Coptotermes formosanus [24] = experiment: Insecticidal activity against Coptotermes formosanus assessed as mortality at 0.00010 g/m2 after 24 hr relative to control
Coptotermes formosanus [25] = experiment: Insecticidal activity against Coptotermes formosanus assessed as mortality at 0.00025 g/m2 after 24 hr relative to control
Coptotermes formosanus [26] = experiment: Insecticidal activity against Coptotermes formosanus assessed as mortality at 0.00050 g/m2 after 24 hr relative to control
Coptotermes formosanus [27] = experiment: Insecticidal activity against Coptotermes formosanus assessed as mortality at 0.00001 g/m2 after 48 hr relative to control
Coptotermes formosanus [28] = experiment: Insecticidal activity against Coptotermes formosanus assessed as mortality at 0.00005 g/m2 after 48 hr relative to control
Coptotermes formosanus [29] = experiment: Insecticidal activity against Coptotermes formosanus assessed as mortality at 0.00010 g/m2 after 48 hr relative to control
Coptotermes formosanus [30] = experiment: Insecticidal activity against Coptotermes formosanus assessed as mortality at 0.00025 g/m2 after 48 hr relative to control
Coptotermes formosanus [31] = experiment: Insecticidal activity against Coptotermes formosanus assessed as mortality at 0.00050 g/m2 after 48 hr relative to control

SMILES | MIC (Trametes coccinea) | MIC (Lenzites betulinus) | MIC (Schizophyllum commune) | MIC (Trametes versicolor) | MIC (Fomitopsis dickinsii) | mortality (Coptotermes formosanus [3]) | mortality (Coptotermes formosanus [4]) | mortality (Coptotermes formosanus [5]) | mortality (Coptotermes formosanus [6]) | mortality (Coptotermes formosanus [7]) | mortality (Coptotermes formosanus [8]) | LC50 (Tyrophagus putrescentiae [1]) | LC50 (Coptotermes formosanus [2]) | mortality (Tyrophagus putrescentiae [15]) | mortality (Tyrophagus putrescentiae [16]) | mortality (Tyrophagus putrescentiae [17]) | mortality (Tyrophagus putrescentiae [18]) | mortality (Tyrophagus putrescentiae [19]) | mortality (Tyrophagus putrescentiae [20]) | mortality (Tyrophagus putrescentiae [21]) | other results
CC(=O)Oc1cc(C(C)C)cccc1=O |  |  |  |  |  |  |  |  |  |  |  |  |  |  |  |  |  |  |  |  | Activity (Tyrophagus putrescentiae [1]): inactive; Activity (Coptotermes formosanus [2]): inactive; growth inhibition (GI) (Trametes coccinea): inactive; growth inhibition (GI) (Lenzites betulinus): inactive; growth inhibition (GI) (Schizophyllum commune): inactive; growth inhibition (GI) (Trametes versicolor): inactive; growth inhibition (GI) (Fomitopsis dickinsii): inactive
C[C@@H]1[C@H](O)[C@@H](C)/C=C/C=C/C=C/C=C/C=C/C=C/C=C/[C@H](O[C@@H]2O[C@H](C)[C@@H](O)[C@H](N)[C@@H]2O)C[C@@H]2O[C@](O)(C[C@@H](O)C[C@@H](O)[C@H](O)CC[C@@H](O)C[C@@H](O)CC(=O)O[C@H]1C)C[C@H](O)[C@H]2C(=O)O [AMPHOTERICIN B] | 0.78 µg/mL (≈ 0.844 µM) | 0.39 µg/mL (≈ 0.422 µM) | 0.39 µg/mL (≈ 0.422 µM) | 0.39 µg/mL (≈ 0.422 µM) | 0.39 µg/mL (≈ 0.422 µM) |  |  |  |  |  |  |  |  |  |  |  |  |  |  |  | 
C=C(C)c1cccc(=O)c(O)c1 [BETA-DOLABRIN] | 25 µg/mL (≈ 154 µM) | 12.5 µg/mL (≈ 77.1 µM) | 12.5 µg/mL (≈ 77.1 µM) | 6.25 µg/mL (≈ 38.5 µM) | 0.2 µg/mL (≈ 1.23 µM) | 11% | 95% | 100% | 100% | 0% | 0% | 0.02 g/m2 | 0.05 g/m2 | 0% | 31% | 91% | 90% | 100% | 100% | 100% | mortality (Coptotermes formosanus [9]): 0%; mortality (Coptotermes formosanus [10]): 40%; mortality (Coptotermes formosanus [11]): 100%; mortality (Coptotermes formosanus [12]): 100%; mortality (Coptotermes formosanus [13]): 0%; mortality (Coptotermes formosanus [14]): 0%
CCOP(=S)(OCC)Oc1nc(Cl)c(Cl)cc1Cl [CHLORPYRIFOS] |  |  |  |  |  |  |  |  |  |  |  |  | 0.00016 g/m2 |  |  |  |  |  |  |  | mortality (Coptotermes formosanus [22]): 0%; mortality (Coptotermes formosanus [23]): 10%; mortality (Coptotermes formosanus [24]): 25%; mortality (Coptotermes formosanus [25]): 60%; mortality (Coptotermes formosanus [26]): 100%; mortality (Coptotermes formosanus [27]): 0%; mortality (Coptotermes formosanus [28]): 40%; mortality (Coptotermes formosanus [29]): 75%; mortality (Coptotermes formosanus [30]): 100%; mortality (Coptotermes formosanus [31]): 100%
CCN(CC)C(=O)c1cccc(C)c1 [DIETHYLTOLUAMIDE] |  |  |  |  |  |  |  |  |  |  |  | 0.79 g/m2 |  | 0% | 0% | 0% | 0% | 4.5% | 18.9% | 67.1% | 
CC(C)c1ccc(O)c(=O)cc1 [GAMMA-THUJAPLICIN] | 25 µg/mL (≈ 152 µM) | 12.5 µg/mL (≈ 76.1 µM) | 12.5 µg/mL (≈ 76.1 µM) | 6.25 µg/mL (≈ 38.1 µM) | 0.2 µg/mL (≈ 1.22 µM) | 32% | 100% | 100% | 100% | 0% | 10% | 0.02 g/m2 | 0.05 g/m2 | 0% | 51% | 66% | 84% | 100% | 100% | 100% | mortality (Coptotermes formosanus [9]): 0%; mortality (Coptotermes formosanus [10]): 20%; mortality (Coptotermes formosanus [11]): 100%; mortality (Coptotermes formosanus [12]): 100%; mortality (Coptotermes formosanus [13]): 5%; mortality (Coptotermes formosanus [14]): 11%
CC(C)c1cccc(=O)c(O)c1 [HINOKITIOL] | 12.5 µg/mL (≈ 76.1 µM) | 12.5 µg/mL (≈ 76.1 µM) | 12.5 µg/mL (≈ 76.1 µM) | 12.5 µg/mL (≈ 76.1 µM) | 0.2 µg/mL (≈ 1.22 µM) | 50% | 100% | 100% | 100% | 0% | 40% | 0.246 g/m2 | 0.07 g/m2 | 0% | 0% | 0% | 11.9% | 33.6% | 91.3% | 100% | mortality (Coptotermes formosanus [9]): 10%; mortality (Coptotermes formosanus [10]): 50%; mortality (Coptotermes formosanus [11]): 100%; mortality (Coptotermes formosanus [12]): 100%; mortality (Coptotermes formosanus [13]): 0%; mortality (Coptotermes formosanus [14]): 20%
